Patent EP2730586B1, “PROTEIN-P[…] OBTAINED FROM TISSUES OF HOOFED LIVESTOCK EMBRYOS, PROCESS FOR PREPARING SAME AND PHARMACEUTICAL COMPOSITION” (Aktsionernoe Obschestvo "Pharm-Sintez", priority 2011, dated 2012)

Test system: mice marrow cells
Protocol: The study objective was detection and quantitative estimate of cytogenetic (mutagenic) activity of pharmacologic substances in polychromatophil cells (PCC) of mammal marrow. The method is based on microscopic recording of cells with micronuclei.
The experiments were performed to 2 months old male and female F1 (CBAx C57BI6/J) cross-breed mice weighing 18-20 g. Each group included 6 animals. The animals were kept at 12 hours light pattern with free food and water access. […] Three sessions of experiments were carried out with corresponding controls: therapeutic dose was tested on male animals with a single introduction; subtoxic dose was tested on male animals with a single introduction; therapeutic dose was tested on male animals with a single introduction; subtoxic dose was tested on male animals and female with five-time introduction.
Seven animal groups were formed: four experimental groups and three corresponding reference groups. The substance in the amount of 0.1 mg/kg was introduced five times at 24 hours interval to males and females. All animals were sacrificed 6 hours upon the last introduction of the protein/polypeptide complex.
In two other experimental groups, the protein/polypeptide complex was introduced in single dosing to males in doses of 0.2 mg/kg and 0.5 mg/kg.
Normal saline solvent was used as a negative control. It was introduced intraperitoneally to male and female mice of two reference groups for the same period and in the same amount as to the experimental animals.
Marrow cell preparations for micronuclei count were made by a standard method in compliance with guidelines [formula] […] The animals were sacrificed through cervical dislocation 6 hours after the last introduction. Both thigh bones were detached and muscles were removed from them. In order to wash out the marrow, fetal calf serum was used (produced by NPP PanEko). The marrow from both thigh bones was washed out into a microtube using a syringe. […] 2,000 polychromatophil cells from each animal were analyzed in encoded preparations.

## O=P1(N(CCCl)CCCl)NCCCO1 (stereo not drawn) [Cyclophosphamide, cyclophosphamide]
20 mg/kg, compared to control P<0.005
  polychromatophilic to normochromatic erythrocytes ratio: shift to the latter
Male mice, 20 mg/kg intraperitoneally, versus reference, P<0.001
  increased frequency of micronucleus cells: 19.6 times
Male mice, 20 mg/kg intraperitoneally, 3.16 % in reference
  frequency of micronucleus cells: 62.1%
